According to ChEMBL document CHEMBL4699592, “Nature-Inspired (di)Azine-Bridged Bisindole Alkaloids with Potent Antibacterial In Vitro and In Vivo Efficacy against Methicillin-Resistant Staphylococcus aureus” (J Med Chem, 2020):
≈ marks a conversion by molar mass, not a printed value. Calls of active or inactive are those of the source. The rule behind the calls is not given here.

Columns and labels:
Staphylococcus aureus [1] = experiment: Inhibition of Staphylococcus aureus ATCC 700699 N-terminal His6-tagged pyruvate kinase expressed in Escherichia coli NiCo21(DE3) at 12.5 uM using phosphoenolpyruvate as substrate measured for 5 mins by LDH-coupled assay
Pseudomonas aeruginosa [2] = experiment: Synergistic antibacterial activity against Pseudomonas aeruginosa ATCC 27853 assessed as FICI after 24 hrs in presence of colistin by checkerboard assay; assay type: functional
[3] = Selectivity index, ratio of IC50 for cytotoxicity against human MRC5 cells to MIC90 for antibacterial activity against […] Staphylococcus aureus ATCC 700699; assay type: toxicity, cell-based; conditions: read-out: Selectivity Index
Staphylococcus aureus [4] = experiment: Antibacterial activity against […] Staphylococcus aureus ATCC 700699 after 24 hrs by broth microdilution method; assay type: functional
Enterococcus faecalis [5] = experiment: Antibacterial activity against Enterococcus faecalis ATCC 29212 at 0.78 to 100 uM after 24 hrs by broth microdilution method; assay type: functional, organism-based; conditions: dose microM 0.78-100, time 24.0 hrs
Staphylococcus aureus [6] = experiment: Antibacterial activity against vancomycin-sensitive Staphylococcus aureus T144 infected in Balb/c mouse assessed as reduction in bacterial burden at 5 mg/kg applied topically measured after 12 days by colony counting method; assay type: functional, organism-based; conditions: time 12.0 day
Pseudomonas aeruginosa [7] = experiment: Synergistic antibacterial activity against Pseudomonas aeruginosa ATCC 27853 assessed as FIC after 24 hrs in presence of colistin by checkerboard assay relative to colistin; assay type: functional
HepG2 = experiment: Cytotoxicity against human HepG2 cells assessed as reduction in cell viability at >12.5 uM measured after 48 hrs by resazurin dye based fluorescence assay; conditions: hepg2, 48 h
HEK293 = experiment: Cytotoxicity against HEK293 cells assessed as reduction in cell viability at >12.5 uM measured after 48 hrs by resazurin dye based fluorescence assay; conditions: human, hek293, 48 h
Staphylococcus aureus [8] = experiment: Bactericidal activity against […] Staphylococcus aureus ATCC 700699 assessed as colony forming units at 5 fold MIC measured after 24 hrs by time kill assay; assay type: functional
Staphylococcus aureus [9] = experiment: Antibacterial activity against vancomycin-sensitive Staphylococcus aureus T144 infected in Balb/c mouse assessed as increase in wound healing at 5 mg/kg applied topically measured daily for 12 days by microscopic analysis; assay type: functional, organism-based; conditions: time 12.0 day
[10] = target: Pyruvate kinase PKM (Oryctolagus cuniculus) (UniProt P11974); experiment: Inhibition of rabbit muscle pyruvate kinase up to 12.5 uM using phosphoenolpyruvate as substrate measured for 5 mins by LDH-coupled assay; conditions: dose microM <=12.5, time 5.0 min
Chain of Pyruvate kinase PKM (Oryctolagus cuniculus) (P11974 whole entry): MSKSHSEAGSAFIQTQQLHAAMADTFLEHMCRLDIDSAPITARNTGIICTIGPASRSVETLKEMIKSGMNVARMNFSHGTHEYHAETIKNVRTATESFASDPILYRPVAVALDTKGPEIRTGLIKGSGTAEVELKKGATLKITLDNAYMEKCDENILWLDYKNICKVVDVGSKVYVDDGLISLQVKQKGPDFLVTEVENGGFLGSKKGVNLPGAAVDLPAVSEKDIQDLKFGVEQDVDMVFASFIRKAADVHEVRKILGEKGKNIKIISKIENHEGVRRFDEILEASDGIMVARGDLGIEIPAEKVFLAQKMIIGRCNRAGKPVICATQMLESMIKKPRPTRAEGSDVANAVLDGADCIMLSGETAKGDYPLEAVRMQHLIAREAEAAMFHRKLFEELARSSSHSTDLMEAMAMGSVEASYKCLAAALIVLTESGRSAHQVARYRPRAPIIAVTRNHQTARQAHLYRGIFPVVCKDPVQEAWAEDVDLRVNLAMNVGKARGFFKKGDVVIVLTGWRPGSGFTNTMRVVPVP

[11] = Selectivity index, ratio of IC50 for cytotoxicity against human THP-1 cells to MIC90 for antibacterial activity against […] Staphylococcus aureus ATCC 700699; assay type: toxicity, cell-based; conditions: read-out: Selectivity Index
Acinetobacter baumannii [12] = experiment: Synergistic antibacterial activity against Acinetobacter baumannii ATCC BAA-1605 assessed as FIC after 24 hrs in presence of colistin by checkerboard assay relative to test compound MIC; assay type: functional
Klebsiella pneumoniae [13] = experiment: Antibacterial activity against Klebsiella pneumoniae ATCC 700603 after 24 hrs by broth microdilution method; assay type: functional
[14] = Solubility of compound in pH 7.7 PBS buffer; assay type: physicochemical
Escherichia coli [15] = experiment: Synergistic antimicrobial activity against Escherichia coli ATCC BAA 2469 assessed as FIC after 24 hrs in presence of colistin by checkerboard assay relative to colistin; assay type: functional
Staphylococcus aureus [16] = experiment: Antibacterial activity against methicillin-resistant Staphylococcus aureus USA300 LAC at 0.15 to 25 uM incubated for 24 hrs under low glucose medium by resazurin dye based fluorescence assay; assay type: functional, organism-based; conditions: dose microM 0.15-25, time 24.0 hrs
[17] = Cytotoxicity against human CLS-54 cells assessed as reduction in cell viability at >12.5 uM measured after 48 hrs by resazurin dye based fluorescence assay; conditions: cls-54, 48 h
Klebsiella pneumoniae [18] = experiment: Synergistic antibacterial activity against Klebsiella pneumoniae ATCC 700603 assessed as FICI after 24 hrs in presence of colistin by checkerboard assay; assay type: functional
Klebsiella pneumoniae [19] = experiment: Antibacterial activity against Klebsiella pneumoniae ATCC 700603 after 24 hrs in presence of colistin by checkerboard assay relative to test compound MIC; assay type: functional
MRC5 = experiment: Cytotoxicity against human MRC5 cells assessed as reduction in cell viability at >=12.5 uM measured after 48 hrs by resazurin dye based fluorescence assay; conditions: mrc5, 48 h
Erythrocyte = experiment: Hemolytic activity against sheep erythrocytes up to 100 uM measured after 1 hr; assay type: ADME, cell-based, Ovis aries
Klebsiella pneumoniae [20] = experiment: Synergistic antibacterial activity against Klebsiella pneumoniae ATCC 700603 assessed as FIC after 24 hrs in presence of colistin by checkerboard assay relative to test compound MIC; assay type: functional
Staphylococcus aureus [21] = experiment: Antibacterial activity against methicillin-resistant Staphylococcus aureus USA300 LAC at 0.15 to 25 uM incubated for 24 hrs under low pyruvate containing medium by resazurin dye based fluorescence assay; assay type: functional, organism-based; conditions: dose microM 0.15-25, time 24.0 hrs
Staphylococcus aureus [22] = experiment: Antibacterial activity against […] Staphylococcus aureus ATCC 700699 assessed as ratio of MIC before and after 38 passages by broth microdilution method; assay type: functional
Pseudomonas aeruginosa [23] = experiment: Synergistic antibacterial activity against Pseudomonas aeruginosa ATCC 27853 assessed as FIC after 24 hrs in presence of colistin by checkerboard assay relative to test compound MIC; assay type: functional
Escherichia coli [24] = experiment: Synergistic antimicrobial activity against Escherichia coli ATCC BAA 2469 assessed as FICI after 24 hrs in presence of colistin by checkerboard assay; assay type: functional
Escherichia coli [25] = experiment: Antimicrobial activity against Escherichia coli ATCC BAA 2469 after 24 hrs in presence of colistin by checkerboard assay relative to test compound MIC; assay type: functional
Staphylococcus aureus [26] = experiment: Bactericidal activity against […] Staphylococcus aureus ATCC 700699 assessed as reduction in bacterial viability at 5 fold MIC incubated for 6 hrs by time kill assay relative to control; assay type: functional
Acinetobacter baumannii [27] = experiment: Synergistic antibacterial activity against Acinetobacter baumannii ATCC BAA-1605 assessed as FIC after 24 hrs in presence of colistin by checkerboard assay relative to colistin; assay type: functional
Enterococcus faecium [28] = experiment: Antibacterial activity against vancomycin-resistant Enterococcus faecium ATCC 700221 at 0.78 to 100 uM after 24 hrs by broth microdilution method; assay type: functional, organism-based; conditions: dose microM 0.78-100, time 24.0 hrs
[29] = Solubility of compound in pH 7.7 DMSO:PBS solution; assay type: physicochemical; conditions: buffer
Enterococcus faecium [30] = experiment: Antibacterial activity against vancomycin-resistant Enterococcus faecium ATCC 35667 at 0.78 to 100 uM after 24 hrs by broth microdilution method; assay type: functional, organism-based; conditions: dose microM 0.78-100, time 24.0 hrs
Acinetobacter baumannii [31] = experiment: Antibacterial activity against Acinetobacter baumannii ATCC BAA-1605 after 24 hrs by broth microdilution method; assay type: functional
Klebsiella pneumoniae [32] = experiment: Synergistic antibacterial activity against Klebsiella pneumoniae ATCC 700603 assessed as FIC after 24 hrs in presence of colistin by checkerboard assay relative to colistin; assay type: functional
Escherichia coli [33] = experiment: Synergistic antimicrobial activity against Escherichia coli ATCC BAA 2469 assessed as FIC after 24 hrs in presence of colistin by checkerboard assay relative to test compound MIC; assay type: functional
Acinetobacter baumannii [34] = experiment: Synergistic antibacterial activity against Acinetobacter baumannii ATCC BAA-1605 assessed as FICI after 24 hrs in presence of colistin by checkerboard assay; assay type: functional
Enterococcus faecalis [35] = experiment: Antibacterial activity against Enterococcus faecalis ATCC 51299 at 0.78 to 100 uM after 24 hrs by broth microdilution method; assay type: functional, organism-based; conditions: dose microM 0.78-100, time 24.0 hrs
[36] = test system: Mycobacterium tuberculosis; experiment: Antibacterial activity against Mycobacterium tuberculosis H37Rv at 0.78 to 100 uM after 5 days by resazurin dye based fluorescence assay; assay type: functional, organism-based; conditions: dose microM 0.78-100, time 5.0 day
Pseudomonas aeruginosa [37] = experiment: Antibacterial activity against Pseudomonas aeruginosa ATCC 27853 measured after 24 hrs by broth microdilution method; assay type: functional
Staphylococcus aureus [38] = experiment: Antibacterial activity against methicillin susceptible Staphylococcus aureus ATCC 25923 at 0.78 to 100 uM after 24 hrs by broth microdilution method; assay type: functional, organism-based; conditions: dose microM 0.78-100, time 24.0 hrs
Escherichia coli [39] = experiment: Antimicrobial activity against Escherichia coli ATCC BAA 2469 after 24 hrs by broth microdilution assay; assay type: functional
Staphylococcus aureus [40] = experiment: Antibacterial activity against methicillin-resistant pyruvate kinase deficient Staphylococcus aureus USA300 LAC at 0.15 to 25 uM incubated for 24 hrs under low pyruvate containing medium by resazurin dye based fluorescence assay; assay type: functional, organism-based; conditions: dose microM 0.15-25, time 24.0 hrs
Acinetobacter baumannii [41] = experiment: Antibacterial activity against Acinetobacter baumannii ATCC BAA-1605 at 0.78 to 100 uM after 24 hrs by broth microdilution method; assay type: functional, organism-based; conditions: dose microM 0.78-100, time 24.0 hrs
Staphylococcus aureus [42] = experiment: Antibacterial activity against vancomycin-sensitive Staphylococcus aureus T144 infected in Balb/c mouse peritonitis-sepsis model assessed as increase in survival at 5 mg/kg, ip measured for 48 hrs; assay type: functional, organism-based
THP-1 = experiment: Cytotoxicity against human THP-1 cells assessed as reduction in cell viability at >=12.5 uM measured after 48 hrs by resazurin dye based fluorescence assay; conditions: thp-1, 48 h

In the case of `Clc1ccc2[nH]cc(-c3cnc(-c4c[nH]c5ccc(Cl)cc45)nc3)c2c1`, the inhibition (Staphylococcus aureus [1]) is reported as “inactive”, the “fractional inhibitory concentration index (FICI)” value (Pseudomonas aeruginosa [2]) is reported as “<=1.0625” and the selectivity ratio [3] is reported as 32. The MIC90 (Staphylococcus aureus [4]) was 0.39 µM (≈ 0.148 µg/mL), the Activity (Enterococcus faecalis [5]) was “Active” and the Activity (Staphylococcus aureus [6]) was “Active”. For the same compound, the FIC (Pseudomonas aeruginosa [7]) was 1, the Activity (HepG2) was “Toxic” and the Activity (HEK293) was “Toxic”. For the same compound, the Activity (Staphylococcus aureus [8]) was <10 CFU/ml, the Activity (Staphylococcus aureus [9]) was “Active” and the inhibition [10] was “inactive”. For the same compound, the selectivity ratio [11] was 32, the FIC (Acinetobacter baumannii [12]) was “<=0.0625” and the MIC (Klebsiella pneumoniae [13]) was > 100 µM. For the same compound, the solubility [14] was “Insoluble”, the FIC (Escherichia coli [15]) was 0.064 and the Activity (Staphylococcus aureus [16]) was “Active”. For the same compound, the Activity [17] was “Toxic”, the “fractional inhibitory concentration index (FICI)” value (Klebsiella pneumoniae [18]) was “<=0.25” and the Ratio (Klebsiella pneumoniae [19]) was 8. For the same compound, the Activity (MRC5) was “Toxic”, the Activity (Erythrocyte) was “Non-Toxic” and the FIC (Klebsiella pneumoniae [20]) was “<=0.125”. The Activity (Staphylococcus aureus [21]) was “Active”, the Ratio (Staphylococcus aureus [22]) was 2 and the FIC (Pseudomonas aeruginosa [23]) was “<=0.0625”. For the same compound, the “fractional inhibitory concentration index (FICI)” value (Escherichia coli [24]) was “<=0.0953”, the Ratio (Escherichia coli [25]) was 32 and the “fold change (FC)” value (Staphylococcus aureus [26]) was 10000. The FIC (Acinetobacter baumannii [27]) was 0.25, the Activity (Enterococcus faecium [28]) was “Active” and the solubility [29] was “Insoluble”. For the same compound, the Activity (Enterococcus faecium [30]) was “Active”, the MIC (Acinetobacter baumannii [31]) was > 100 µM and the FIC (Klebsiella pneumoniae [32]) was 0.125. For the same compound, the FIC (Escherichia coli [33]) was “<=0.0313”, the “fractional inhibitory concentration index (FICI)” value (Acinetobacter baumannii [34]) was “<=0.3125” and the Activity (Enterococcus faecalis [35]) was “Active”. For the same compound, the Activity [36] was “Active”, the MIC (Pseudomonas aeruginosa [37]) was > 100 µM and the Activity (Staphylococcus aureus [38]) was “Active”. The MIC (Escherichia coli [39]) was > 100 µM, the Activity (Staphylococcus aureus [40]) was “Active” and the Activity (Acinetobacter baumannii [41]) was “Active”. The Activity (Staphylococcus aureus [42]) was “Active” and the Activity (THP-1) was “Toxic”.
